# Assay results taken from PubChem BioAssay AID1918998 (Molecular Pharmacology Branch, DTP, NCI, 2023).
# pIC50: −log10 of the molar value. Several values for one entry are separate records, joined by “and”; a condition that tells them apart may be missing. Equal entries are not always repeated.
# Test system: 521955-158-R2-J5-PDC complex spheroid growth
# Assay: Anticancer human tumor 521955-158-R2-J5-PDC patient-derived pancreatic carcinoma cell line growth inhibition [AhR]
# Conditions: for viability, T/C: stronger effect = lower value
# Summary of the method: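 Complex tumor spheroids co-cultured with HUVEC and human MSC stroma; AhR antagonists tested in combination with standard-of-care and investigational agents. Top concentration at or near clinical Cmax (else 10 microM), half-log dilutions; growth expressed as percent test/control.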
# [1] = curve of first compound, second compound 0.1 µM
# [2] = curve of first compound, second compound 0.316 µM
# [3] = curve of first compound, second compound 1 µM
# [4] = curve of first compound, second compound 3.16 µM
# [5] = curve of first compound, second compound 10 µM
# [6] = second compound 0.1 µM, first compound 0.0316 µM
# [7] = second compound 0.1 µM, first compound 0.1 µM
# [8] = second compound 0.1 µM, first compound 0.316 µM
# [9] = second compound 0.1 µM, first compound 1 µM
# [10] = second compound 0.1 µM, first compound 3.16 µM
# [11] = second compound 0.1 µM, first compound 10 µM
# [12] = second compound 0.316 µM, first compound 0.0316 µM
# [13] = second compound 0.316 µM, first compound 0.1 µM
# [14] = second compound 0.316 µM, first compound 0.316 µM
# [15] = second compound 0.316 µM, first compound 1 µM
# [16] = second compound 0.316 µM, first compound 3.16 µM
# [17] = second compound 0.316 µM, first compound 10 µM
# [18] = second compound 1 µM, first compound 0.0316 µM
# [19] = second compound 1 µM, first compound 0.1 µM
# [20] = second compound 1 µM, first compound 0.316 µM
# [21] = second compound 1 µM, first compound 1 µM
# [22] = second compound 1 µM, first compound 3.16 µM
# [23] = second compound 1 µM, first compound 10 µM
# [24] = second compound 3.16 µM, first compound 0.0316 µM
# [25] = second compound 3.16 µM, first compound 0.1 µM
# [26] = second compound 3.16 µM, first compound 0.316 µM
# [27] = second compound 3.16 µM, first compound 1 µM
# [28] = second compound 3.16 µM, first compound 3.16 µM
# [29] = second compound 3.16 µM, first compound 10 µM
# [30] = second compound 10 µM, first compound 0.0316 µM
# [31] = second compound 10 µM, first compound 0.1 µM
# [32] = second compound 10 µM, first compound 0.316 µM
# [33] = second compound 10 µM, first compound 1 µM
# [34] = second compound 10 µM, first compound 3.16 µM
# [35] = second compound 10 µM, first compound 10 µM
# 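Wherever viability, T/C is given: spheroids mix tumor cells with HUVEC endothelium and human MSC stroma; luminescence taken as viability surrogate after a week of drug exposure.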
smiles,measurement,setting,value
Nc1ncn(C2CC(O)C(CO)S2)c(=O)n1 (configuration not stated) + Cc1ccccc1N=Nc1ccc(NC(=O)c2ccnn2C)c(C)c1,pIC50,[1],< 6.52
same,pIC50,[2],< 6.52
same,pIC50,[3],< 6.52
same,pIC50,[4],< 6.52
same,pIC50,[5],< 6.52
same,"viability, T/C","second compound 0.1 µM, first compound 0.000949 µM",125%
same,"viability, T/C","second compound 0.1 µM, first compound 0.003 µM",103%
same,"viability, T/C","second compound 0.1 µM, first compound 0.00949 µM",104%
same,"viability, T/C","second compound 0.1 µM, first compound 0.03 µM",104%
same,"viability, T/C","second compound 0.1 µM, first compound 0.0949 µM",98%
same,"viability, T/C","second compound 0.1 µM, first compound 0.3 µM",73%
same,"viability, T/C","second compound 0.316 µM, first compound 0.000949 µM",92.9%
same,"viability, T/C","second compound 0.316 µM, first compound 0.003 µM",132%
same,"viability, T/C","second compound 0.316 µM, first compound 0.00949 µM",107%
same,"viability, T/C","second compound 0.316 µM, first compound 0.03 µM",100%
same,"viability, T/C","second compound 0.316 µM, first compound 0.0949 µM",80.5%
same,"viability, T/C","second compound 0.316 µM, first compound 0.3 µM",78.2%
same,"viability, T/C","second compound 1 µM, first compound 0.000949 µM",100%
same,"viability, T/C","second compound 1 µM, first compound 0.003 µM",146%
same,"viability, T/C","second compound 1 µM, first compound 0.00949 µM",108%
same,"viability, T/C","second compound 1 µM, first compound 0.03 µM",91%
same,"viability, T/C","second compound 1 µM, first compound 0.0949 µM",99.9%
same,"viability, T/C","second compound 1 µM, first compound 0.3 µM",102%
same,"viability, T/C","second compound 3.16 µM, first compound 0.000949 µM",135%
same,"viability, T/C","second compound 3.16 µM, first compound 0.003 µM",145%
same,"viability, T/C","second compound 3.16 µM, first compound 0.00949 µM",125%
same,"viability, T/C","second compound 3.16 µM, first compound 0.03 µM",130%
same,"viability, T/C","second compound 3.16 µM, first compound 0.0949 µM",105%
same,"viability, T/C","second compound 3.16 µM, first compound 0.3 µM",109%
same,"viability, T/C","second compound 10 µM, first compound 0.000949 µM",176%
same,"viability, T/C","second compound 10 µM, first compound 0.003 µM",170%
same,"viability, T/C","second compound 10 µM, first compound 0.00949 µM",157%
same,"viability, T/C","second compound 10 µM, first compound 0.03 µM",139%
same,"viability, T/C","second compound 10 µM, first compound 0.0949 µM",125%
same,"viability, T/C","second compound 10 µM, first compound 0.3 µM",127%
CC1COCCN1c1cc(C2(S(C)(=N)=O)CC2)nc(-c2ccnc3[nH]ccc23)n1 (configuration not stated) + Cc1ccccc1N=Nc1ccc(NC(=O)c2ccnn2C)c(C)c1,pIC50,[1],5.69
same,pIC50,[2],5.63
same,pIC50,[3],5.60
same,pIC50,[4],5.60
same,pIC50,[5],5.59
same,"viability, T/C",[6],93.3%
same,"viability, T/C",[7],84.7%
same,"viability, T/C",[8],86.6%
same,"viability, T/C",[9],86.2%
same,"viability, T/C",[10],28.1%
same,"viability, T/C",[11],15.9%
same,"viability, T/C",[12],104%
same,"viability, T/C",[13],112%
same,"viability, T/C",[14],100%
same,"viability, T/C",[15],101%
same,"viability, T/C",[16],32.8%
same,"viability, T/C",[17],14%
same,"viability, T/C",[18],117%
same,"viability, T/C",[19],110%
same,"viability, T/C",[20],136%
same,"viability, T/C",[21],109%
same,"viability, T/C",[22],36.2%
same,"viability, T/C",[23],14.8%
same,"viability, T/C",[24],123%
same,"viability, T/C",[25],135%
same,"viability, T/C",[26],131%
same,"viability, T/C",[27],120%
same,"viability, T/C",[28],32.8%
same,"viability, T/C",[29],15.5%
same,"viability, T/C",[30],130%
same,"viability, T/C",[31],149%
same,"viability, T/C",[32],139%
same,"viability, T/C",[33],124%
same,"viability, T/C",[34],32.9%
same,"viability, T/C",[35],16.1%
COc1ccc([C@@H](O)c2cc(-c3ncnc4cc(N5CCOCC5)ccc34)c(F)cc2Cl)nn1 + Cc1cncc(-c2nc(NCCc3c[nH]c4ccccc34)c3ncn(C(C)C)c3n2)c1,pIC50,[1],< 5.00
same,pIC50,[2],< 5.00
same,pIC50,[3],< 5.00
same,pIC50,[4],< 5.00
same,pIC50,[5],< 5.00
same,"viability, T/C",[6],102%
same,"viability, T/C",[7],102%
same,"viability, T/C",[8],99.7%
same,"viability, T/C",[9],78.1%
same,"viability, T/C",[10],65.8%
same,"viability, T/C",[11],50.8%
same,"viability, T/C",[12],118%
same,"viability, T/C",[13],116%
same,"viability, T/C",[14],113%
same,"viability, T/C",[15],85.1%
same,"viability, T/C",[16],75.1%
same,"viability, T/C",[17],54.4%
same,"viability, T/C",[18],115%
same,"viability, T/C",[19],127%
same,"viability, T/C",[20],113%
same,"viability, T/C",[21],104%
same,"viability, T/C",[22],83.3%
same,"viability, T/C",[23],61.6%
same,"viability, T/C",[24],134%
same,"viability, T/C",[25],153%
same,"viability, T/C",[26],130%
same,"viability, T/C",[27],111%
same,"viability, T/C",[28],96.3%
same,"viability, T/C",[29],65.9%
same,"viability, T/C",[30],138%
same,"viability, T/C",[31],131%
same,"viability, T/C",[32],175%
same,"viability, T/C",[33],114%
same,"viability, T/C",[34],62.9%
same,"viability, T/C",[35],46.6%
NS(=O)(=O)OCC1CC(n2ccc3c(NC4CCc5ccccc54)ncnc32)CC1O (configuration not stated) + Cc1ccccc1N=Nc1ccc(NC(=O)c2ccnn2C)c(C)c1,pIC50,[1],5.87
same,pIC50,[2],5.91
same,pIC50,[3],6.03
same,pIC50,[4],6.09
same,pIC50,[5],6.46
same,"viability, T/C",[6],118%
same,"viability, T/C",[7],115%
same,"viability, T/C",[8],102%
same,"viability, T/C",[9],56.7%
same,"viability, T/C",[10],30.4%
same,"viability, T/C",[11],20.8%
same,"viability, T/C",[12],111%
same,"viability, T/C",[13],105%
same,"viability, T/C",[14],87.5%
same,"viability, T/C",[15],53.5%
same,"viability, T/C",[16],30.9%
same,"viability, T/C",[17],21.9%
same,"viability, T/C",[18],114%
same,"viability, T/C",[19],111%
same,"viability, T/C",[20],88.3%
same,"viability, T/C",[21],47.6%
same,"viability, T/C",[22],29.6%
same,"viability, T/C",[23],23.7%
same,"viability, T/C",[24],137%
same,"viability, T/C",[25],110%
same,"viability, T/C",[26],77.6%
same,"viability, T/C",[27],45.2%
same,"viability, T/C",[28],23.7%
same,"viability, T/C",[29],21.8%
same,"viability, T/C",[30],108%
same,"viability, T/C",[31],91.2%
same,"viability, T/C",[32],50.8%
same,"viability, T/C",[33],32.1%
same,"viability, T/C",[34],25.2%
same,"viability, T/C",[35],25.6%
CCN(c1cc(-c2ccc(CN3CCOCC3)cc2)cc(C(=O)NCc2c(C)cc(C)[nH]c2=O)c1C)C1CCOCC1,"viability, T/C",compound 0.00949 µM,104% and 116% and 106%
same,"viability, T/C",compound 0.03 µM,111% (2×) and 113%
same,"viability, T/C",compound 0.0949 µM,93.7% and 98.9% and 87%
same,"viability, T/C",compound 0.3 µM,97.9% and 94.6% and 81.7%
same,"viability, T/C",compound 0.949 µM,99.9% and 70.8% and 81.8%
same,"viability, T/C",compound 3 µM,96.3% and 84.7% and 88%
same,pIC50,curve of compound,< 5.52
